Data published in the supplement of paper PMC11781733.
Counter-ions that a name gives are not always drawn.

How the values were obtained:
Conditions in all cases: exposure time: 15 min to 3 h acute
[1] = test system: Dugesia japonica; assay: C-shape incidence (% planarians (vehicle-normalised)); higher = higher incidence or increase relative to vehicle control
How it was run: (§1)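 A blinded researcher manually scored planarian body shapes (contraction, C-shape, corkscrew, hyperkinesis), leaving out any worm that crawled out of its well. The D. japonica worms had been fasted 5–7 days, kept one per well in 200 μL in sealed 48-well plates, and screened within 15 minutes–3 hours of exposure to at least 5 concentrations. Values give shape incidence ×100, normalised to vehicle controls in the same plate, with negatives set to 0.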

[2] = test system: Dugesia japonica; assay: loss of phototaxis incidence (% planarians (vehicle-normalised)); higher = higher incidence or increase relative to vehicle control
How it was run: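 Automated object tracking was used to score intact, fasted Dugesia japonica for loss of phototaxis as a yes/no outcome. Worms sat one per well in 200 μL on 48-well plates and were tested 15 min to 3 h after exposure in 0.5% DMSO or water vehicle. The incidence rate ×100 was normalised to in-plate vehicle controls, negatives were set to 0, and worms that crawled out were left out.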

[3] = test system: Dugesia japonica; assay: crawl-out incidence (% planarians); higher = higher incidence or increase relative to vehicle control
[4] = test system: Dugesia japonica; assay: noxious heat displacement strength vs vehicle (% change vs vehicle); higher = higher incidence or increase relative to vehicle control
How it was run: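 Displacement strength under noxious heat was measured in the scrunching assay on intact, fasted Dugesia japonica, one per well of a 48-well plate in 200 μL. Worms were tested 15 min to 3 h after exposure in 0.5% DMSO or water vehicle, using automated object tracking. Eight worms per concentration per plate were run in technical triplicate (n = 24). Each worm was normalised to the plate's vehicle median, and the value is the median percent change; worms that crawled out were excluded.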

[5] = test system: Dugesia japonica; assay: any abnormal body shape incidence (% planarians (vehicle-normalised)); higher = higher incidence or increase relative to vehicle control
How it was run: as §1

[6] = test system: Dugesia japonica; assay: resting fraction in blue light vs vehicle (difference in fraction x100 vs vehicle); higher = higher incidence or increase relative to vehicle control
How it was run: (§2)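 Automated tracking of intact, fasted Dugesia japonica, one worm per well of a 48-well plate in 200 μL, was used to measure the resting fraction in the dark or under blue light. Testing took place 15 min to 3 h after exposure in 0.5% DMSO or water vehicle. Each plate held eight worms per concentration, run in technical triplicate. For each worm, the plate's vehicle median was subtracted and the difference multiplied by 100; the median of these values is reported, with worms that crawled out excluded.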

[7] = test system: Dugesia japonica; assay: contracted body shape incidence (% planarians (vehicle-normalised)); higher = higher incidence or increase relative to vehicle control
How it was run: as §1

[8] = test system: Dugesia japonica; assay: speed in dark vs vehicle (% change vs vehicle); higher = higher incidence or increase relative to vehicle control
How it was run: (§3)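 Automated tracking recorded crawling speed of intact, fasted Dugesia japonica in the dark or under blue light, and values are reported as the median percent change relative to the plate's vehicle median. Worms sat singly in wells of a 48-well plate in 200 μL and were tested 15 min to 3 h after exposure in 0.5% DMSO or water vehicle. Worms that crawled out were left out, with eight per concentration per plate in technical triplicate (n = 24).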

[9] = test system: Dugesia japonica; assay: loss of heat-induced scrunching incidence (% planarians (vehicle-normalised)); higher = higher incidence or increase relative to vehicle control
How it was run: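 D. japonica planarians (fasted 5–7 days), one per well in 200 μL in sealed 48-well plates, were exposed to at least 5 concentrations (n = 24 per concentration, technical triplicates). They were tested within 15 minutes–3 hours for scrunching in response to a noxious heat stimulus; worms that crawled out were excluded. The value is the incidence ×100 of worms without scrunching, normalised to in-plate vehicle controls, with negatives set to 0.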

[10] = test system: Dugesia japonica; assay: pharynx extrusion incidence (% planarians (vehicle-normalised)); higher = higher incidence or increase relative to vehicle control
How it was run: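 Blind manual scoring of pharynx extrusion, treated as a body-shape category, was done on intact, fasted Dugesia japonica. Worms sat singly in 200 μL per well of a 48-well plate, in water or 0.5% DMSO vehicle, and were tested between 15 min and 3 h after exposure. Eight worms per concentration per plate were run in technical triplicate (n = 24), and any that crawled out were excluded. The incidence was normalised to in-plate vehicle controls, with negatives set to 0.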

[11] = test system: Dugesia japonica; assay: speed first 30 s blue light vs vehicle (% change vs vehicle); higher = higher incidence or increase relative to vehicle control
How it was run: as §3

[12] = test system: Dugesia japonica; assay: corkscrew incidence (% planarians (vehicle-normalised)); higher = higher incidence or increase relative to vehicle control
How it was run: as §1

[13] = test system: Dugesia japonica; assay: stickiness incidence (% planarians (vehicle-normalised)); higher = higher incidence or increase relative to vehicle control
How it was run: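 Fasted Dugesia japonica planarians, one per well of a sealed 48-well plate in 200 μL solution, were tested 15 min–3 h after exposure to half- or quarter-log concentration series. The vehicle was 0.5% DMSO or water. Stickiness was scored as a binary endpoint in the Stickiness assay, pooling technical triplicates (n = 24). Incidence was normalised to in-plate vehicle incidence, with negatives set to 0, and multiplied by 100. Crawled-out worms were excluded.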

[14] = test system: Dugesia japonica; assay: anxiety (time in outer well region) vs vehicle (% change vs vehicle); higher = higher incidence or increase relative to vehicle control
How it was run: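 D. japonica planarians (fasted 5–7 days), one per well in 200 μL in sealed 48-well plates, were exposed to at least 5 concentrations (n = 24 per concentration, technical triplicates) and screened within 15 minutes–3 hours. Time spent in the outer portion of the well was measured by object tracking in MATLAB or Python; worms that crawled out were excluded. Each worm's response was divided by, or reduced by, the plate vehicle median and multiplied by 100. The value is the median.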

[15] = test system: Dugesia japonica; assay: hyperkinesis incidence (% planarians (vehicle-normalised)); higher = higher incidence or increase relative to vehicle control
How it was run: as §1

[16] = test system: Dugesia japonica; assay: resting fraction in dark vs vehicle (difference in fraction x100 vs vehicle); higher = higher incidence or increase relative to vehicle control
How it was run: as §2

[17] = test system: Dugesia japonica; assay: speed second 30 s blue light vs vehicle (% change vs vehicle); higher = higher incidence or increase relative to vehicle control
How it was run: as §3

[18] = test system: Dugesia japonica; assay: total locomotor bursts minus vehicle (bursts difference vs vehicle); higher = higher incidence or increase relative to vehicle control
How it was run: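 Fasted Dugesia japonica planarians were placed one per well in a sealed 48-well plate with 200 μL solution and exposed to half- or quarter-log concentration series, with 0.5% DMSO or water as vehicle. Testing took place 15 min–3 h after exposure, with technical triplicates totalling n = 24. Total locomotor bursts, an unstimulated behaviour, were scored by image-based object tracking, and the plate vehicle-control median was subtracted from each planarian's value without scaling. The reported value is the median normalised response, excluding worms that crawled out.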

Structure (SMILES)	C-shape incidence [1]	loss of phototaxis incidence [2]	crawl-out incidence [3]	noxious heat displacement strength [4]	any abnormal body shape incidence [5]	resting fraction in blue light [6]	contracted body shape incidence [7]	speed in dark [8]	loss of heat-induced scrunching incidence [9]	pharynx extrusion incidence [10]	speed first 30 s blue light [11]	corkscrew incidence [12]	stickiness incidence [13]	anxiety [14]	hyperkinesis incidence [15]	resting fraction in dark [16]	speed second 30 s blue light [17]	total locomotor bursts minus vehicle [18]
O=C(CCCN1CCC(O)(c2ccc(Br)cc2)CC1)c1ccc(F)cc1 [bromperidol] (31.6 µM)	4.35	≤ 0	8.33	-36.2	73.9	37.3	30.4	-41	52.2	0	-69	21.7	≤ 0	20.6	69.6	43.3	-63.1	0.5
CN(C)CCCC1(c2ccc(F)cc2)OCc2cc(C#N)ccc21 (configuration not stated) [citalopram hydrobromide] (31.6 µM)	0	16.7	0	-16.4	16.7	0	0	3.2	33.3	0	6.16	0	≤ 0	4.85	16.7	1.41	-6.94	1.25
CN1C(=O)CN=C(c2ccccc2)c2cc(Cl)ccc21 [diazepam] (100 µM)	62.5	29.2	0	-45.6	100	50.2	12.5	-72.2	37.5	37.5	-84.2	20.8	≤ 0	-36.9	16.7	48.6	-87.6	55
CN1CC(=O)N=C1NC(=O)Nc1cccc(Cl)c1 [fenobam] (178 µM)	0	≤ 0	0	-42.2	0	0	0	-3.57	≤ 0	0	-12.6	0	≤ 0	3.95	0	0.09	-18.9	0.5
CCCCNc1c(C(=O)OCC)c(C)nc2c1cnn2CC [tracazolate hydrochloride] (10 µM)	0	≤ 0	0	-3.78	0	0	0	-27.1	16.7	0	-24.7	0	≤ 0	-12.6	0	1.52	-17.8	4.5
CN1CC(=O)N=C1NC(=O)Nc1cccc(Cl)c1 [fenobam] (316 µM)	0	≤ 0	0	-32.2	0	0.18	0	-12.6	≤ 0	0	-14.2	0	≤ 0	-0.1	0	0	-16.9	0
CN[C@H]1CC[C@@H](c2ccc(Cl)c(Cl)c2)c2ccccc21 [sertraline hydrochloride] (100 µM)	0	4.35	4.17	-27.1	91.3	3.91	0	7.78	21.7	0	-33.7	0	≤ 0	17.1	91.3	4.98	-33.9	-5.25
O=C1CC2(CCCC2)CC(=O)N1CCCCN1CCN(c2ncccn2)CC1 [buspirone] (100 µM)	0	42.9	12.5	-53.2	9.52	44.9	0	-41	57.1	0	-79.9	4.76	19.1	-20.5	4.76	43	-81.2	0.5
O=C(CCCN1CCC(O)(c2ccc(Cl)cc2)CC1)c1ccc(F)cc1 [haloperidol] (3.16 µM)	0	31.8	8.33	-30.8	9.52	12.2	4.76	-38.5	9.09	0	-68.4	4.76	≤ 0	-3.6	0	16.5	-58.4	4.5
